Measurements taken from patent US20070219186A1, “Pyrazolo[1,5-A]pyrimidine derivatives and methods of use thereof” (priority 2006, published 2007).
Like-named read-outs stand apart in the source and are kept apart here.

Biological target: T1, human B-Raf (Homo sapiens, UniProt P15056)
T1 construct: Flag; GST; made in house; host or cells: Sf9 insect cells (B-Raf); E. coli (MEK1-GST)
Assay: B-Raf Kinase to MEK1 ELISA
Type: biochemical
Settings: for inhibition at 10 µM: read-out: % Inhib./10 uM
Method in brief: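 Flag/GST-tagged human B-Raf (Sf9, ~20 ng/point) phosphorylates non-active GST-MEK1 (50 nM final) with ATP and MgCl2 in MOPS pH 7.2 buffer, 60 min at RT. Product is captured on anti-GST plates; MEK1 pSer217/221 is read by phospho-antibody plus europium conjugate (DELFIA).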

[1] = median, cpd concentrations from 10 μM to 30 nM in half log dilutions, read-out: Median IC50

T1 sequence (P15056 whole entry): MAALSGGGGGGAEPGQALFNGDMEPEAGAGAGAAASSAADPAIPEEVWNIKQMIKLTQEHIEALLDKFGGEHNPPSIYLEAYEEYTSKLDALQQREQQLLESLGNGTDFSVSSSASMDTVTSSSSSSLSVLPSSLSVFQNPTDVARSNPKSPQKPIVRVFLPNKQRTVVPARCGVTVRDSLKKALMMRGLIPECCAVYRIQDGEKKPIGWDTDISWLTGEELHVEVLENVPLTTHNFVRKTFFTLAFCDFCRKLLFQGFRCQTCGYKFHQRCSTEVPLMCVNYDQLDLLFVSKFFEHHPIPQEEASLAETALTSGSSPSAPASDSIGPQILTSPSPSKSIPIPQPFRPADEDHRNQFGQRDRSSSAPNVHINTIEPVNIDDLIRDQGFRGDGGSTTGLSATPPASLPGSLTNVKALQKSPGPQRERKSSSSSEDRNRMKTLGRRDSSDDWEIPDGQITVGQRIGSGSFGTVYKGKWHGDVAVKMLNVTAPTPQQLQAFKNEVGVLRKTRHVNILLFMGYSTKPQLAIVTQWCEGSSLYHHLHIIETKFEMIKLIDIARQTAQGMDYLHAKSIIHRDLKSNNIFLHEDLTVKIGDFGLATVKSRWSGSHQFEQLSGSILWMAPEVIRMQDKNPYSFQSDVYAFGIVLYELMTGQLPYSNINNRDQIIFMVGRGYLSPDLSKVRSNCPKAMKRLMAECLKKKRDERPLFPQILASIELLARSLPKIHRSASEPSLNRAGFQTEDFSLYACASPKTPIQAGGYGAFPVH

| Compound | IC50 [1] | inhibition at 10 µM | IC50 | % Inhib./10 uM (single point assay, 10 uM) |
| --- | --- | --- | --- | --- |
| Cc1cnc2cc(-c3ccncc3)nn2c1-c1cccc(NC(=O)c2cccc(C(F)(F)F)c2)c1 [Example 177, N-[3-(6-methyl-2-pyridin-4-ylpyrazolo[1,5-a]pyrimidin-7-yl)phenyl]-3-(trifluoromethyl)benzamide] | 200 nM | 95% |  |  |
| Cc1cnc2c(Br)cnn2c1-c1cccc(NC(=O)c2cccc(C(F)(F)F)c2)c1 [Example 178, N-[3-(3-bromo-6-methylpyrazolo[1,5-a]pyrimidin-7-yl)phenyl]-3-(trifluoromethyl)benzamide] |  | 67% | 3160 nM |  |
| Cc1cnc2c(-c3cccnc3)cnn2c1-c1cccc(NC(=O)c2cccc(C(F)(F)F)c2)c1 [Example 179, N-[3-(6-methyl-3-pyridin-3-ylpyrazolo[1,5-a]pyrimidin-7-yl)phenyl]-3-(trifluoromethyl)benzamide] |  | 90% | 650 nM |  |
| Cc1ccc(C(=O)Nc2cccc(-c3ccnc4c(-c5ccc(N)cc5)cnn34)c2)cc1C(F)(F)F [Example 180, N-{3-[3-(4-aminophenyl)pyrazolo[1,5-a]pyrimidin-7-yl]phenyl}-4-methyl-3-(trifluoromethyl)benzamide] |  | 95% | 180 nM |  |
| Cc1ccc(C(=O)Nc2cccc(-c3ccnc4c(-c5cccc(O)c5)cnn34)c2)cc1C(F)(F)F [Example 181, N-{3-[3-(3-hydroxyphenyl)pyrazolo[1,5-a]pyrimidin-7-yl]phenyl}-4-methyl-3-(trifluoromethyl)benzamide] |  | 87% | 290 nM |  |
| Cc1ccc(C(=O)Nc2cccc(-c3ccnc4c(-c5cccc(C#N)c5)cnn34)c2)cc1C(F)(F)F [Example 182, N-{3-[3-(3-cyanophenyl)pyrazolo[1,5-a]pyrimidin-7-yl]phenyl}-4-methyl-3-(trifluoromethyl)benzamide] | > 10000 nM | 29% |  |  |
| Cc1ccc(C(=O)Nc2cccc(-c3ccnc4c(-c5cccc(C(=O)N(C)C)c5)cnn34)c2)cc1C(F)(F)F [Example 183, N-[3-(3-{3-[(dimethylamino)carbonyl]phenyl}pyrazolo[1,5-a]pyrimidin-7-yl)phenyl]-4-methyl-3-(trifluoromethyl)benzamide] |  | 84% | 270 nM |  |
| CC(=O)Nc1ccc(-c2cnn3c(-c4cccc(NC(=O)c5ccc(C)c(C(F)(F)F)c5)c4)ccnc23)cc1 [Example 184, N-(3-{3-[4-(acetylamino)phenyl]pyrazolo[1,5-a]pyrimidin-7-yl}phenyl)-4-methyl-3-(trifluoromethyl)benzamide] |  | 89% | 200 nM |  |
| CCOC(=O)c1cc2nccc(-c3cccc(NC(=O)c4cccc(C(F)(F)F)c4)c3)n2n1 [Example 185, ethyl 7-(3-{[3-(trifluoromethyl)benzoyl]amino}phenyl)pyrazolo[1,5-a]pyrimidine-2-carboxylate] | > 10000 nM | 6% |  |  |
| CN(C)c1cc2nccc(-c3cccc(NC(=O)c4cccc(C(F)(F)F)c4)c3)n2n1 [Example 187, N-{3-[2-(dimethylamino)pyrazolo[1,5-a]pyrimidin-7-yl]phenyl}-3-(trifluoromethyl)benzamide] | > 10000 nM | 31% |  |  |
| Cc1ccc(C(=O)Nc2cccc(-c3ccnc4c(-c5ccncc5)cnn34)c2)cc1C(F)(F)F [Example 188, 4-methyl-N-[3-(3-pyridin-4-ylpyrazolo[1,5-a]pyrimidin-7-yl)phenyl]-3-(trifluoromethyl)benzamide] |  | 86% | 300 nM |  |
| COc1ccc(C(=O)Nc2cccc(-c3ccnc4c(-c5ccncc5)cnn34)c2)cc1C(F)(F)F [Example 189, 4-methoxy-N-[3-(3-pyridin-4-ylpyrazolo[1,5-a]pyrimidin-7-yl)phenyl]-3-(trifluoromethyl)benzamide] |  | 83% | 360 nM |  |
| O=C(Nc1cccc(-c2ccnc3c(-c4ccncc4)cnn23)c1)c1ccc(F)c(C(F)(F)F)c1 [Example 190, 4-fluoro-N-[3-(3-pyridin-4-ylpyrazolo[1,5-a]pyrimidin-7-yl)phenyl]-3-(trifluoromethyl)benzamide] | 940 nM | 68% |  |  |
| O=C(Nc1cccc(-c2ccnc3c(-c4ccncc4)cnn23)c1)c1ccc(Cl)c(C(F)(F)F)c1 [Example 191, 4-chloro-N-[3-(3-pyridin-4-ylpyrazolo[1,5-a]pyrimidin-7-yl)phenyl]-3-(trifluoromethyl)benzamide] | 1920 nM | 60% |  |  |
| O=C(Nc1cccc(-c2ccnc3c(-c4ccncc4)cnn23)c1)Nc1cccc(C(F)(F)F)c1 [Example 192, N-[3-(3-pyridin-4-ylpyrazolo[1,5-a]pyrimidin-7-yl)phenyl]-N′-[3-(trifluoromethyl)phenyl]urea] | 1300 nM | 72% |  |  |
| O=C(Nc1cccc(-c2ccnc3c(-c4ccncc4)cnn23)c1)Nc1ccc(F)c(C(F)(F)F)c1 [Example 193, N-[4-fluoro-3-(trifluoromethyl)phenyl]-N′-[3-(3-pyridin-4-ylpyrazolo[1,5-a]pyrimidin-7-yl)phenyl]urea] | 500 nM | 79% |  |  |
| Cc1ccc(C(=O)Nc2cccc(-c3ccnc4cc(N5CCOCC5)nn34)c2)cc1C(F)(F)F [Example 194, 4-methyl-N-[3-(2-morpholin-4-ylpyrazolo[1,5-a]pyrimidin-7-yl)phenyl]-3-(trifluoromethyl)benzamide] | 110 nM | 96% |  |  |
| COc1ccc(C(=O)Nc2cccc(-c3ccnc4cc(N5CCOCC5)nn34)c2)cc1C(F)(F)F [Example 195, 4-methoxy-N-[3-(2-morpholin-4-ylpyrazolo[1,5-a]pyrimidin-7-yl)phenyl]-3-(trifluoromethyl)benzamide] | 220 nM | 93% |  |  |
| O=C(Nc1cccc(-c2ccnc3cc(N4CCOCC4)nn23)c1)c1ccc(F)c(C(F)(F)F)c1 [Example 196, 4-fluoro-N-[3-(2-morpholin-4-ylpyrazolo[1,5-a]pyrimidin-7-yl)phenyl]-3-(trifluoromethyl)benzamide] | 90 nM | 96% |  |  |
| O=C(Nc1cccc(-c2ccnc3cc(N4CCOCC4)nn23)c1)c1ccc(Cl)c(C(F)(F)F)c1 [Example 197, 4-chloro-N-[3-(2-morpholin-4-ylpyrazolo[1,5-a]pyrimidin-7-yl)phenyl]-3-(trifluoromethyl)benzamide] | 200 nM | 91% |  |  |
| O=C(Nc1cccc(-c2ccnc3cc(N4CCOCC4)nn23)c1)c1ccc(Cl)c(Cl)c1 [Example 198, 3,4-dichloro-N-[3-(2-morpholin-4-ylpyrazolo[1,5-a]pyrimidin-7-yl)phenyl]benzamide] | 1900 nM | 56% |  |  |
| O=C(Nc1cccc(-c2ccnc3cc(N4CCOCC4)nn23)c1)Nc1cccc(C(F)(F)F)c1 [Example 199, N-[3-(2-morpholin-4-ylpyrazolo[1,5-a]pyrimidin-7-yl)phenyl]-N′-[3-(trifluoromethyl)phenyl]urea] | 120 nM | 96% |  |  |
| O=C(Nc1cccc(-c2ccnc3cc(N4CCOCC4)nn23)c1)Nc1ccc(Cl)c(C(F)(F)F)c1 [Example 200, N-[4-chloro-3-(trifluoromethyl)phenyl]-N′-[3-(2-morpholin-4-ylpyrazolo[1,5-a]pyrimidin-7-yl)phenyl]urea] | 200 nM | 94% |  |  |
| O=C(Nc1cccc(-c2ccnc3cc(N4CCOCC4)nn23)c1)Nc1ccc(Cl)c(Cl)c1 [Example 201, N-(3,4-dichlorophenyl)-N′-[3-(2-morpholin-4-ylpyrazolo[1,5-a]pyrimidin-7-yl)phenyl]urea] | 100 nM | 96% |  |  |
| O=C(Nc1cccc(-c2ccnc3cc(N4CCOCC4)nn23)c1)Nc1ccc(F)c(C(F)(F)F)c1 [Example 202, N-[4-fluoro-3-(trifluoromethyl)phenyl]-N′-[3-(2-morpholin-4-ylpyrazolo[1,5-a]pyrimidin-7-yl)phenyl]urea] | 120 nM | 96% |  |  |
| CN1CCN(c2cc3nccc(-c4cccc(NC(=O)c5cccc(C(F)(F)F)c5)c4)n3n2)CC1 [Example 203, N-{3-[2-(4-methylpiperazin-1-yl)pyrazolo[1,5-a]pyrimidin-7-yl]phenyl}-3-(trifluoromethyl)benzamide] |  | 16% | > 10000 nM |  |
| CN(C)CC#Cc1cnn2c(-c3cccc(NC(=O)c4cccc(C(F)(F)F)c4)c3)ccnc12 [Example 205, N-(3-{3-[3-(dimethylamino)prop-1-yn-1-yl]pyrazolo[1,5-a]pyrimidin-7-yl}phenyl)-3-(trifluoromethyl)benzamide] | 1730 nM | 81% |  |  |
| CC(C)(C)OC(=O)N1CCN(c2cc3nccc(-c4cccc(NC(=O)c5cccc(C(F)(F)F)c5)c4)n3n2)CC1 [Example 206, tert-butyl 4-[7-(3-{[3-(trifluoromethyl)benzoyl]amino}phenyl)pyrazolo[1,5-a]pyrimidin-2-yl]piperazine-1-carboxylate] | > 10000 nM | 18% |  |  |
| O=C(Nc1cccc(-c2ccnc3cc(N4CCN(Cc5ccccc5)CC4)nn23)c1)c1cccc(C(F)(F)F)c1 [Example 207, N-{3-[2-(4-benzylpiperazin-1-yl)pyrazolo[1,5-a]pyrimidin-7-yl]phenyl}-3-(trifluoromethyl)benzamide] | > 10000 nM | 0% |  |  |
| O=C(Nc1cccc(-c2ccnc3cc(N4CCNCC4)nn23)c1)c1cccc(C(F)(F)F)c1 [Example 208, N-[3-(2-piperazin-1-ylpyrazolo[1,5-a]pyrimidin-7-yl)phenyl]-3-(trifluoromethyl)benzamide] |  |  | 6150 nM | 54% |
